Patent US20240425710A1, “PEPTIDE-BASED BIOINK COMPOSITIONS” (Ramot at Tel-Aviv University Ltd., priority 2022, published 2024)
The star is where a group is joined. Fmoc = O=C(OCC1c2ccccc2-c2ccccc21)*

Columns and labels:
Assay type in all cases: physicochemical
[1] = Time sweep rheology of peptide hydrogels and hybrid hydrogels; details: 5 Hz; for G′/G″ / G′ (storage modulus) / G″ (loss modulus): hydrogels 5 g·L−1, time sweep 0.5% strain; for G′ (storage modulus): after 4 hours of gelation; for G′ (storage modulus) / G″ (loss modulus): room temperature
Method: Rheological measurements: Rheological analysis was performed using an AR-G2 controlled rheometer (TA Instruments, New Castle, DA, USA). Oscillatory strain (0.01-100%) and frequency sweep (0.01-100 Hz) were conducted on 100 μL samples of pre gelated disks, 8 mm in diameter. The measurement was conducted with an 8 mm geometry (resulting in a gap size of 1 mm) at room temperature, in order to define the viscoelastic region in which the oscillatory test was performed.
Time-sweep oscillatory analyses used a constant a frequency of 5 Hz and a strain of 0.5%. Freshly prepared samples (220 μL) were placed under a 20 mm parallel plate geometry (resulting in a gap of 0.6 mm) at room temperature to determine the G′ (storage modulus) and G″, (loss modulus) for each sample.
The in situ kinetics of the hydrogels formation and their mechanical properties were characterized by time sweep measurements over 4 hours at a fixed strain of 0.5% and frequency of 5 Hz, and the results are presented in FIGS. 3A-B.

[2] = TEM imaging of hydrogel fibrils; details: hydrogels 5 g·L−1
Method: Transmission electron microscopy (TEM): Samples (10 μl) were placed on copper grids (400 mesh) covered with a carbon-stabilized Formvar film (EMS, BNFFA1000-Cu). After 2 minutes, excess gel was removed, and the grids were negatively stained with 10 μl of UranylLess staining solution for 1 minute. Finally, excess fluid was removed, and the samples were viewed in a JEM 1400plus electron microscope operating at 80 kV.

[3] = Hydrogel formation, inverted tubes after overnight gelation; details: single peptide, 5 g·L−1 in water from DMSO stock
Method: Preparation of hydrogels: Stock solutions of each of Fmoc-FF, PepA and PepB were prepared by dissolving the respective peptides in dimethyl sulfoxide (DMSO) at a concentration of 100 gram/liter (g·L^−1). The hydrogels were prepared by diluting the stock solution in double distilled water to a final concentration of 5 grams/Liter (5 g·L^−1), to thereby obtain a hydrogel formulation. The mixture was vortexed for 2 seconds and then incubated at room temperature until gelation occurred, thereby providing a hydrogel bioink composition.
Hydrogels made of a single peptide and hybrid hydrogels made of two peptides were prepared using the solvent switch method by dissolving the monomers in DMSO and then diluting the stock solutions into water to a final concentration of 5 g-L.

[4] = Absorbance kinetics of the hydrogel formation (turbidity at 400 nm)
Method: Absorbance kinetics of the hydrogel formation: Samples of 100 μL of Fmoc-FF, PegA, PepB formulations and the co-assembled hydrogels (bioink compositions) were placed into a 96-well plate. Absorbance at 400 nm was measured every 30 seconds using a TECAN Infinite M2000PRO plate reader for a total of 4 hours.
To further evaluate the impact of co-assembly on gelation kinetics, the absorbance spectra of the hybrid hydrogels compared to the Fmoc-FF hydrogel at 400 nm was monitored over time and the results are presented in FIGS. 8A-B.

| Substance | G′/G″ [1] | G′ (storage modulus) [1] | G″ (loss modulus) [1] | fibril diameter [2] | hydrogel formation [3] | time to gelation / plateau of hydrogel formation ([1]; time sweep over 4 hours, 0.5% strain, 5 g·L−1) | time to form a clear hydrogel (absorbance drop) ([4]; absorbance at 400 nm monitored over time) | OD value reached ([4]; absorbance at 400 nm, minimum after clearing) |
| --- | --- | --- | --- | --- | --- | --- | --- | --- |
| Fmoc-Phe-Phe-EG2—COOH [PepA] | 3 | 157 Pa | 42 Pa | 9 nm | formed a weak hydrogel |  |  |  |
| Fmoc-Phe-Phe-EG6-COOH [PepB] | 0 | 1 Pa | 1 Pa |  | did not form a hydrogel at all |  |  |  |
| Fmoc-Phe-Phe-OH [Fmoc-FF, reference compound] | 37 | 9552 Pa | 251 Pa | 16 nm | rigid and stable | ≤ 4 min | within a few minutes | 0.1 OD |
